In patent publication US7235534B2, “Antisense strategy to modulate estrogen receptor response (ER α and/or ER β )” (Institut de Cardiologie de Montreal, priority 2001, dated 2007):

Experiments:
[1] = test system: p38 MAPK; assay: Western blot of p38 MAPK phosphorylation in PAEC; assay type: cell-based, porcine; settings: for inhibition of p38 MAPK phosphorylation induced by a 30 minutes treatment with 17βE: antagonist 10^−7M 5 min prior to 17βE 10^−8M
Method: Confluent PAEC and PSMC were starved for 7 hours in DMEM and antibiotics. Culture medium was removed, and cells were rinsed twice with ice-cold DMEM. PSMC were incubated on ice in DMEM with or without 17βE (10^−8M) for 30 min, incubated at 37° C. for 5, 10, 15 and 30 min, then brought back on ice. Cell were then rinsed with cold DMEM, incubated on ice in DMEM, bovine serum albumin (1 mg/ml), PDGF-BB (10 ng/ml) for 30 min, incubated at 37° C. for 5 min, and then brought back on ice. PAEC were incubated on ice in DMEM with or without 17βE (10^−7M) for 30 min, then incubated at 37° C. for 5, 10, 15 and 30 min and brought back on ice. […] Total proteins were prepared by the addition of 500 μl of lysis buffer containing phenylmethylsulfonyl fluoride 1 mM, leupeptin 10 μg/ml, aprotinin 30 μg/ml, and NaVO3 1 mM (Sigma). Plates were incubated at 4° C. for 30 min and scraped, and the protein concentration was determined with a Bio-Rad protein kit (Bio-Rad, Hercules, Calif.). Same protein quantity for each cell type and condition were dissolved in Laemmli's buffer, boiled for 5 min in reducing conditions, separated by a 10% gradient SDS-PAGE (Protean II kit; Bio-Rad), and transblotted onto a 0.45-μm polyvinylidene difluoride membranes (Millipore Corp., Bedford, Mass.). The membranes were blocked in 5% Blotto-TTBS (5% nonfat dry milk; Bio-Rad), 0.05% Tween 20, 0.15 M NaCl, 25 mM Tris-HCl, pH 7.5) for 1 h at room temperature with gentle agitation and incubated overnight at 4° C. in 0.5% Blotto-TTBS with the addition of an anti-phospho p42/44 MAPK or an anti-phospho p38 MAPK rabbit polyclonal antiserums (α-pp42/44; dilution of 1:10 000, and α-pp38; dilution 1:5000, New England BioLabs, Beverly, Mass.). Membranes were washed with TTBS, and incubated at room temperature with an anti-rabbit IgG antibody coupled to horseradish peroxidase (dilution 1:10 000–1:20 000, Santa Cruz Biotechnology, Santa Cruz, Calif.) in 0.5% Blotto-TTBS for 30 min. […] Kaleidoscope molecular weight and SDS-plyacrylamide gel electrophoresis broad range marker proteins (Bio-Rad) were used as standards for SDS-plyacrylamide gel electrophoresis. Digital image densitometry (PDI Bioscience, Aurora, ON) was performed on x-ray film to determine relative percentages of p42/44 and p38 MAPK phosphorylation.
Confluent PAEC and PSMC were preteated with or without antisense sequences as described above for Western Blot analysis. Cells were rinsed twice with ice-cold DMEM. PSMC and PAEC were stimulated with or without 17βE (10^−8 mol/L) as previously described (Geraldes P). Briefly, PSMC were incubated on ice in DMEM with or without 17βE (10^−8 mol/L) for 30 minutes, incubated at 37° C. for 30 minutes, then brought back on ice. Cells were then rinsed with cold DMEM, incubated on ice in DMEM, bovine serum albumin (1 mg/mL), PDGF-BB (10 ng/mL) for 30 minutes, incubated at 37° C. for 5 and 30 minutes, and then brought back on ice. PAEC were incubated on ice in DMEM with or without 17βE (10^−8 mol/L) for 30 minutes, then incubated at 37° C. for 5 and 30 minutes and brought back on ice. Total proteins were prepared-by the addition of 500 μL of lysis buffer, incubated at 4° C. for 30 minutes and scraped to collect the proteins. Same quantity of protein was separated by a 10% gradient SDS-PAGE (Protean II kit; Bio-Rad), and transblotted onto a 0.45-μm polyvinylidene difluoride membranes (Millipore Corp.). […]

[2] = test system: Porcine smooth muscle cells (PSMC); assay: Chemotactic assay on PSMC (modified Boyden chamber); assay type: cell-based; settings: for reversal of the anti-chemotactic effect of 17βE on PSMC: antagonist 10^−7M before 17βE 10^−8M, PDGF-BB 10 ng/ml
Method: (§1) Cell migration was evaluated using a modified Boyden 48-well microchamber kit (NeuroProbe, Cabin John, MD.). Near confluent EC and PSMC were rinsed with DMEM and trypsinized. Cells were resuspended in DMEM, 5% FBS, and antibiotics, and a cell count was obtained. […] ER antagonists were added 5 minutes before 17βE. Cells were harvested by trypsinization and resuspended in DMEM, 1% FBS, and antibiotics at a concentration of 5×10^5 cells/ml. […] The two sections of the system were separated by a porous polycarbonate filter (5-μm pores), pre-treated with a gelatine solution (1.5 mg/ml), and assembled. Five hours post incubation at 37° C., the nonmigrated cells were scraped with a plastic policeman, and the migrated cells were stained using a Quick-Diff solution. The filter was then mounted on a glass slide, and migrated cells were counted using a microscope adapted to a video camera to obtain a computer-digitized image.
(§2) Cell migration was evaluated using a modified Boyden 48-well microchamber kit (NeuroProbe, Cabin John, MD.). Near confluent PAEC and PSMC were rinsed with DMEM and trypsinized. Cells were resuspended in DMEM, 5% FBS, and antibiotics, and a cell count was obtained. PAEC and PSMC were seeded at 2.5×10^5 cells/well of 6-well tissue culture plates; stimulated for 24 hours in DMEM, 5% FBS, and antibiotics with or without antisense oligomers (10^−6 mol/L) and starved for 48 hours in DMEM, 0.1% FBS, and antibiotics with or without antisense oligomers (10^−6 mol/L daily) with or without 17βE (10^−8 mol/L). Cells were harvested by trypsinization and resuspended in DMEM, 1% FBS, and antibiotics at a concentration of 5×10^5 cells/mL. Fifty μL of this cell suspension with or without antisense oligomers (10^−6 mol/L) treated with or without 17βE (10^−8 mol/L) was added in the higher-chamber of the modified Boyden chamber apparatus, and the lower chamber was filled with DMEM, 1% FBS, antibiotics plus the desired concentration of agonist either 17βE (10^−8 mol/L) or platelet-derived growth factor-BB (PDGF-BB). The 2 sections of the system were separated by a porous polycarbonate filter (5-μm pores size), pretreated with a gelatine solution (1.5 mg/mL), and assembled. Five hours postincubation at 37° C., the non-migrated cells were scraped with a plastic policeman, and the migrated cells were stained using a Quick-Diff solution (Shandon Inc). The filter was then mounted on a glass slide, and migrated cells were counted using a microscope adapted to a video camera to obtain a computer-digitized image.

[3] = test system: Porcine aortic endothelial cells (PAEC); assay: Chemotactic assay on PAEC (modified Boyden chamber); assay type: cell-based
Method: as §1, §2

Compound | inhibition of p38 MAPK phosphorylation induced by a 30 minutes treatment with 17βE [1] | reversal of the anti-chemotactic effect of 17βE on PSMC [2] | time of maximum stimulation of p38 MAPK phosphorylation ([1]; 17βE 10^−8M) | increase of p38 MAPK phosphorylation ([1]; 17βE 10^−8 mol/L, 30 minutes, Example 2) | stimulation of PAEC migration as compared to bFGF (10 ng/ml) alone ([3]; 17βE 10^−8M combined with bFGF) | induction of PAEC migration as compared to DMEM 1% ([3]; 17βE 10^−8 mol/L, 5 hours) | inhibition of the chemotactic effect of PDGF-BB (10 ng/mL) on PSMC ([2]; 17βE 1^−8 mol/L as printed, Example 2) | inhibition of the chemotactic effect of PDGF-BB (10 ng/ml) on PSMC ([2]; 17βE 10^−8M, Example 1)
CC/C(=C(\c1ccccc1)c1ccc(OCCN(C)C)cc1)c1ccccc1 [Tam, Tamoxifen] | 84% | reversed completely | – | – | – | – | – | –
CC/C(=C(\c1ccc(O)cc1)c1ccc(OCCN(C)C)cc1)c1ccccc1 [4-OHT, 4-OH-Tamoxifen] | 81% | reversed completely | – | – | – | – | – | –
C[C@]12CC[C@@H]3c4ccc(O)cc4CC[C@H]3[C@@H]1CC[C@@H]2O [17βE, 17-beta-estradiol] | – | – | 30 min | 254% | 121% | 4.63 fold | inhibited completely | inhibited completely
O=C(c1ccc(OCN2CCCCC2)cc1)c1c(-c2ccc(O)cc2)sc2cc(O)ccc12 [Ral, Raloxifen] | 98% | reversed completely | – | – | – | – | – | –
